Values after ≈ are worked out from the molar mass of the structure shown. Like-named read-outs stand apart in the source and are kept apart here.
How the values were obtained:
[1] = tested on: Trichophyton rubrum; experiment: Randomized double blind clinical trials, Trichophyton rubrum infection; type: in vivo, human; conditions: 2 % cream (nitrate salts), 28 days treatment
Protocol: (§1) Human clinical trials were performed with Sertaconazole nitrate and Miconazole nitrate acid addition salts. Randomized double blind trials were carried out with 502 patients suffering from cutaneous mycosis as confirmed by microscopic examination and microbiological culture. 247 patients were treated with 2 % Sertaconazole cream and the remaining 255 patients were treated with 2 % Miconazole cream. All patients received scheduled treatment for 28 days and were followed up for an additional 28 days for possible relapses.

[2] = Safe dosage based on the toxicity findings; conditions: in vivo
Protocol: (§2) In a study of prolonged subacute toxicity of Miconazole in rats, among other effects, significant hepatomegalias in females with a dosage of under 30 mg/kg p.o. and in males with a dosage of under 60 mg/kg p.o. were observed.
Based on these finds a safe dosage for Miconazole is about 10 mg/kg, while a safe dosage for Sertaconzole is about 150 mg/kg, i.e about 15 times higher.

[3] = tested on: Candida tropicalis; experiment: MIC by two-fold dilution, Candida tropicalis; type: cell-based; conditions: 10 strains, read-out: Minimum Inhibitory Concentration
Protocol: (§3) Minimum Inhibitory Concentrations (MICS) of Sertaconazole and Miconazole against 107 yeasts, 47 dermatophytes and 4 fungi were determined by a two-fold dilution method.

[4] = tested on: Dermatophytes, Others; experiment: MIC by two-fold dilution, other dermatophytes; type: cell-based; conditions: 3 strains; read-out: Minimum Inhibitory Concentration
Protocol: as §3

[5] = tested on: 16 microorganisms; experiment: Geometric mean of all MIC measurements, comparative in vitro testing; type: cell-based; conditions: for MIC: read-out: Geometric means of MIC
Protocol: Minimum Inhibitory Concentrations (MICS) of Sertaconazole were also measured in comparison to four of the compounds described in the Martin Patent, including a compound, referred to herein as Martin Compound 1, which has the same structure as Sertaconazole, expect that the sulfur in the benzothiophene ring is replaced by an oxygen.
The results of comparative in vitro testing of Sertaconazole and these four Martin compounds are shown in the following Table II against 16 microorganisms. The reading time is the time interval from the time of inoculation to the time of measurement.

[6] = tested on: Scopulariopsis brevi-caulis; experiment: MIC by two-fold dilution, Scopulariopsis brevicaulis; type: cell-based
Protocol: as §3

[7] = Acute toxicity (LD50) in mouse, three administration routes; conditions: in vivo, males
Excerpt: (§4) A number of compounds with antimycotic and/or fungicidal properties, which are useful in pharmaceutical compositions, are currently known. These include the commercially successful Miconazole having the formula II [drawing 2] Miconazole has a structure chemically similar to the 1H-imidazole derivative compounds of the invention. Miconazole is effective against a number of yeasts, dermatophytes and fungi. This effectiveness can be measured by culturing these microorganisms in vitro and applying a preparation containing the antimycotic compound, Miconazole. The results of this type of in vitro experiment is expressed in terms of the Minimum Inhibitory Concentration (MIC), i.e. the minimum concentration which inhibits the growth of the microorganism. For example, the MIC for Miconazole against a particular Candida albicans strain is found to be 10.7 micrograms/milliliter. The effectiveness of Miconazole as an antimycotic compound is measured in vivo by applying a suspension containing the drug to the skin of a number of animals and measuring the proportion of animals on which growth of the microorganism is inhibited as a function of time. Typically, after 25 days, about 1/4 of the animals were cured, when treated with a cream containing 2 % by weight Miconazole. Of course, any pharmaceutical preparation for treating a disease in a human must satisfy certain toxicity requirements. […] Toxicity tests have been performed on the IH-imidazole derivative compounds of the invention and on Miconazole and other known compounds having antimycotic properties. In toxicity tests the LD50 (the dose at which 50 % mortality occurs) is measured.
(§5) Toxicity of Sertaconazole, Microazole and Martin's compounds 1, 2 and 3, as shown below, has been tested by standard methods. Both acute toxicity, subacute toxicity and chronic toxicity were studied
(§6) Oral, intraperitoneal and subcutaneous acute toxicity of sertaconazole and miconazole have been investigated. LD50 in mouse and rat, male and female, were measured.

[8] = Prolonged subacute toxicity in rats; type: in vivo, rat; conditions: rat, in vivo, po
Protocol: as §2

[9] = tested on: Candida albicans; experiment: Vaginal infection by Candida albicans in female mice; type: in vivo; conditions: seven days after infection
Excerpt: Besides the above in vivo experiments vaginal infection by Candida albicans was studied in female mice. Standard methods were used. […] Similar results were found in experiments where repeated dosages of active compound were used after infection. These in vivo results confirmed the surprising speed of action of Sertaconazole in comparison to the prior art compounds.

[10] = tested on: Trichophyton menta-grophytes; experiment: MIC by two-fold dilution, Trichophyton mentagrophytes; type: cell-based; conditions: 30 strains, read-out: Minimum Inhibitory Concentration
Protocol: as §3

[11] = tested on: Malasezzia furfur; experiment: MIC by two-fold dilution, Malasezzia furfur; type: cell-based; conditions: 20 strains
Protocol: as §3

[12] = Acute toxicity (LD50) in rat, three administration routes; conditions: in vivo, males
Protocol: as §5, §6

[13] = tested on: Gram-positive germs; experiment: MIC by two-fold dilution, Gram-positive germs; type: cell-based; conditions: 21 strains; read-out: Minimum Inhibitory Concentration
[14] = tested on: Swiss mice; conditions: mouse, in vivo
Excerpt: Such signs included convulsions and Straub tail(vertical righting of the tail).

[15] = tested on: cutaneous mycosis; experiment: Randomized double blind clinical trials, cutaneous mycosis; conditions: 2 % cream (nitrate salts)
Protocol: as §1

[16] = tested on: Trichophyton mcntagrophytes; experiment: Dermal infection in albino female guinea pigs by Trichophyton mentagrophytes; type: in vivo, guinea pig; conditions: for % microbiological healing / Negative Cultures to Total Cultures: 2% cream
Excerpt: as §4
Dermal infection in albino female guinea pigs by Trichophyton mcntagrophytes has been studied. Animals were distributed in three groups: a) a control group of infected untreated animals; b) a scrtaconazole group of infected and treated animals; and c) a miconazole group of infected and treated animals. Animals were depleted and a 0.4 ml suspension of the microorganism was applied on the depleted area. Treatment with each of the test drugs was made by application of 1 g of 2% cream on the depleted area on the 4th, 5th and 6th day after infection.

[17] = tested on: Microsporum canis; experiment: MIC by two-fold dilution, Microsporum canis; type: cell-based; conditions: 4 strains, read-out: Minimum Inhibitory Concentration
Protocol: as §3

For `Clc1ccc(C(Cn2ccnc2)OCc2csc3c(Cl)cccc23)c(Cl)c1` (stereo not drawn) [Sertaconazole], the “effectiveness against Trichophyton rubrum” value [1] was 100%, the “safe dosage higher than that of Miconazole” value [2] was “about 15 times” and the NOAEL ([2]; rat) was about 150 mg/kg. For the same molecule, the MIC [3] was 5.6 µg/mL (≈ 12.8 µM), the MIC [4] was 2.5 µg/mL (≈ 5.71 µM) and the MIC ([5]; 48 h, SZ vs M2, reading time 48 h) was 0.366 µg/mL (≈ 0.836 µM). It also gave an MIC ([5]; 48 h, SZ vs M3, reading time 48 h) of 0.336 µg/mL (≈ 0.768 µM), an MIC ([5]; 48 h, SZ vs M4, reading time 48 h) of 0.336 µg/mL (≈ 0.768 µM) and an MIC ([5]; 60 h, SZ vs M1, reading time 60 h) of 0.876 µg/mL (≈ 2 µM). The “Increase of Sertaconazole activity” value ([5]; relative to Martin Compound 1) was 24%, the “Increase of Sertaconazole activity” value ([5]; relative to Martin Compound 2) was 54% and the “Increase of Sertaconazole activity” value ([5]; relative to Martin Compound 3) was 16%. For the same molecule, the “Increase of Sertaconazole activity” value ([5]; relative to Martin Compound 4) was 54%, the MIC ([6]; Scopulariopsis, 4 strains, read-out: Minimum Inhibitory Concentration) was 8 µg/mL (≈ 18.3 µM) and the “increase of activity in comparison to Miconazole” value ([6]; in vitro) was 75%. It also gave an LD50 ([7]; ip, intraperitoneal) of over 8000 mg/kg, an LD50 ([7]; oral) of over 8000 mg/kg and an LD50 ([7]; sc, subcutaneous) of over 8000 mg/kg. It also gave an NOAEL [8] of at least 300 mg/kg, an animals healed [9] of 75% and an MIC [10] of 2.6 µg/mL (≈ 5.94 µM). The “Minimum Inhibitory Concentration” value [11] was 25/8, the LD50 ([12]; ip, intraperitoneal) was over 8000 mg/kg and the LD50 ([12]; oral) was over 8000 mg/kg. The LD50 ([12]; sc, subcutaneous) was over 8000 mg/kg, the MIC [13] was 0.97 µg/mL (≈ 2.22 µM) and the “less toxic than Martin Compound 1” value [14] was 8-15 times. The “signs of intoxication in the central nervous system (convulsions and Straub tail)” value [14] was “not observed”, the LD0 ([14]; ip) was 4000 mg/kg and the LD50 ([14]; ip) was 8000 mg/kg. For the same molecule, the “side effects (contact dermatitis)” value [15] was “no such side effects”, the “more effective than Miconazole” value ([15]; 28 days treatment) was 20.8% and the “% microbiological healing” value ([16]; 18 days postinfection) was 56%. For the same molecule, the “Negative Cultures to Total Cultures” value ([16]; 18 days postinfection) was 27/48, the “% microbiological healing” value ([16]; 25 days postinfection) was 75% and the “Negative Cultures to Total Cultures” value ([16]; 25 days postinfection) was 36/48. The “% microbiological healing” value ([16]; 32 days postinfection) was 84%, the “Negative Cultures to Total Cultures” value ([16]; 32 days postinfection) was 40/48 and the “activity higher than Miconazole” value ([16]; 18th day postinfection) was 9 times. For the same molecule, the “activity higher than Miconazole” value ([16]; 25th day postinfection) was 2.7 times, the “activity higher than Miconazole” value ([16]; 32nd day postinfection) was 1.9 times and the MIC [17] was 2.8 µg/mL (≈ 6.4 µM).

Reference: US5135943A, “1H-imidazole derivative compounds and pharmaceutical compositions containing the same” (priority 1984, dated 1992)
